Measured values published in US7803826B2, “Imidazolidine derivatives” (Chugai Seiyaku Kabushiki Kaisha, priority 2004, dated 2010).
Like-named read-outs stand apart in the source and are kept apart here.

Experiments:
[1] = biological target: T1, human androgen receptor (Homo sapiens, UniProt P10275); test: Investigation of antagonist effects: androgen receptor reporter gene (MMTV-luciferase) assay in 11A11B2 cells with 0.1 nmol/L DHT; type: cell-based
T1 construct: expressed in transfected cells
T1 sequence (P10275 1-920): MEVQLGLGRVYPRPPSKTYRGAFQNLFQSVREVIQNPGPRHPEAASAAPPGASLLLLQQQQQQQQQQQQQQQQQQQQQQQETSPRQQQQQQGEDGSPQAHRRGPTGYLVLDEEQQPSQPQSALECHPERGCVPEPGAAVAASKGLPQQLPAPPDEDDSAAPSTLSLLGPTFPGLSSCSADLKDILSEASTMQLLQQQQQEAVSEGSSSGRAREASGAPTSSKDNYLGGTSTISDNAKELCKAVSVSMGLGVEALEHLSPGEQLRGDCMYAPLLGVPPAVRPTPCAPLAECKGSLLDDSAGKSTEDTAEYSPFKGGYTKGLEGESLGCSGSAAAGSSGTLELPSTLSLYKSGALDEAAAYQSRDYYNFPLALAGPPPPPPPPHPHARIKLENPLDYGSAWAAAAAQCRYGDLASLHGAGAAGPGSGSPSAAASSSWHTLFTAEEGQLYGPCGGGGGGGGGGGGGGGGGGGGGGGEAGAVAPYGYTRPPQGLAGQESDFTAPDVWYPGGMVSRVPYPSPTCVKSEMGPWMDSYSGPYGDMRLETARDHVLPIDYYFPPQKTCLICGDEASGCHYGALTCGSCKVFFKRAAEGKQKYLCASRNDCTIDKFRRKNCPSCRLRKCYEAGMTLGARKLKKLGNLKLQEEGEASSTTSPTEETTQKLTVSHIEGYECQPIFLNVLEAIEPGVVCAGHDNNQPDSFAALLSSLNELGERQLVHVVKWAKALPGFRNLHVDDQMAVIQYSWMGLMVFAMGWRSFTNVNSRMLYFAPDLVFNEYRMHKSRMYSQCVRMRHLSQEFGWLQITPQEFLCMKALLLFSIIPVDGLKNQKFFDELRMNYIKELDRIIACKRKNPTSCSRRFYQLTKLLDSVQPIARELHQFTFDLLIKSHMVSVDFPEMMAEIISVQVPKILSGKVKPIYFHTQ
Protocol: (§1) HeLa cells (purchased from Dai-Nippon Seiyaku K.K.) were cultured overnight in Dulbecco's Modified Eagle Medium containing no phenol red, but containing 3% charcoal-treated fetal bovine serum (hereafter referred to as DCC-FBS) (this medium is hereafter referred to as phenol-red-free DMEM). An MMTV-Luc-Hyg vector (reporter plasmid with mouse mammary tumor virus long terminal repeat as an androgen response element: vector obtained by substituting the chloramphenicol acetyl transferease gene of a GM-CAT vector (A.T.C.C No. 67282) purchased from the A.T.C.C. with the firefly luciferase gene, and inserting a hygromycin resistance gene as a drug resistance gene), and pSG5-hAR-neo (human androgen receptor expression vector: a vector having an androgen receptor gene under the control of the SV40 promoter, and having a neomycin resistance gene inserted as a drug resistance gene) were transfected into the HeLa cells using an FuGENE™ 6 Transfection Reagent (obtained from Roche).
(§2) A clone in which transcription activity was elevated in a dose-dependent manner by dihydrotestosterone was obtained by culturing the transfected cells in DMEM containing 500 μg/mL neomycin, 300 μg/mL hygromycin and 10% fetal bovine serum (hereafter referred to as FBS). The clone cells thus obtained (11A11B2 cells) were maintained and propagated using DMEM containing 400 μg/mL neomycin, 200 μg/mL hygromycin and 10% FBS, and were propagated using phenol-red-free DMEM containing 10% DCC-FBS three to four days prior to the performance of an androgen receptor reporter gene assay.
After culturing for 48 hours, the transcription activity values were measured. The transcription activity was measured using a Bright-Glo™ Luciferase Assay System (Promega).
(§3) The transcription activity rates of the compounds of the examples were calculated from the transcription activity measured by the abovementioned method, with the transcription activity value obtained at 0.1 nmol/L DHT taken as 100%, and the transcription activity value in the case of the assay medium alone taken as 0%.
Accordingly, the value obtained by subtracting the transcription activity rate of Test Example 1 (Investigation of Agonist Activity) from the transcription activity rate of Test Example 2 (Investigation of Antagonist Activity) was used to calculate the compound concentration at which a transcription activity of 50% was shown (IC50 value). The IC50 value was calculated from a linear equation for two points on either side of 50%.

[2] = biological target: T1, human androgen receptor; test: Investigation of agonist effects: androgen receptor reporter gene (MMTV-luciferase) assay in 11A11B2 cells; type: cell-based; details: compound concentration showing a transcription activity of 5% (0.1 nmol/L DHT = 100%, assay medium alone = 0%), 48 hours
Protocol: as §1, §2
The 11A11B2 cells were inoculated in a white clear-bottomed 96-well microplate (COSTAR) so that the cell concentration was 1.0×10^4/well, using phenol-red-free DMEM containing 3% DCC-FBS (hereafter referred to as the assay medium), and were cultured overnight. The assay medium containing the compounds of the examples and compounds of the comparative examples were added so that the final concentrations of the compounds of the examples and compounds of the comparative examples were 1, 10, 100, 1,000 and 10,000 nmol/L (however, in the case of the compounds of Examples 1 and 2, the compounds were added so that the final concentrations were […]), and the cells were cultured for 48 hours, after which the transcription activity value was measured. The transcription activity was measured using a Bright-Glo™ Luciferase Assay System (Promega).
as §3, with “0%. The compound concentration showing a transcription activity of 5% (EC5 value) was calculated from a linear equation for two points on either side of 5%.” for “0%.”

[3] = prostate cancer patients treated with flutamide; cited from earlier work
[4] = biological target: androgen receptor (Homo sapiens, UniProt P10275); details: at a concentration of 10 μmol/L; cited from earlier work
[5] = system: castrated rats; details: continuously administered for two weeks; cited from earlier work
[6] = 11A11B2 cells, 0.1 nmol/L DHT, 48 hours, agonist transcription activity rate of Test Example 1 subtracted, read-out: IC50

Work on `COc1cc(N2C(=O)C(C)(C)N(CCCS(N)(=O)=O)C2=S)ccc1C#N` [Example 2, 3-[3-(4-cyano-3-methoxyphenyl)-5,5-dimethyl-4-oxo-2-thioxoimidazolidin-1-yl]propane-1-sulfonic acid amide] yielded an IC50 [1, 6] of 0.3 µM and an EC5 [2] greater than 10 µM.

Molecule `CC(=O)NCCN1C(=S)N(c2ccc(C#N)c(C(F)(F)F)c2)C(=O)C1(C)C` [Comparative Example 2, 4-[3′-(2″-N-acetylaminoethyl)-4′,4′-dimethyl-5′-oxo-2′-thioxo-1′-imidazolidinyl]-2-trifluoromethylbenzonitrile, reference compound] has an EC5 [2] of 3 µM.

For `CC(C)(O)C(=O)Nc1ccc([N+](=O)[O-])c(C(F)(F)F)c1` [Comparative Example 4, hydroxyflutamide], the “hydroxyflutamide concentration in the blood” value [3] is given as “several”, the EC5 [2] is given as 0.01 µM and the “androgen receptor transcription activity” value [4] is given as “increase”.

With `CC1(C)C(=O)N(c2ccc(C#N)c(Cl)c2)C(=S)N1CCCCCS(N)(=O)=O` [Example 27, 5-[3-(3-chloro-4-cyanophenyl)-5,5-dimethyl-4-oxo-2-thioxoimidazolidin-1-yl]pentane-1-sulfonic acid amide] the IC50 [1, 6] was 0.4 µM and the EC5 [2] was greater than 10 µM.

Molecule `CN1C(=S)N(c2ccc(C#N)c(C(F)(F)F)c2)C(=O)C1(C)C` [Comparative Example 1, 4-(5-oxo-2-thioxo-3,4,4-trimethyl-1-imidazolidinyl)-2-trifluoromethylbenzonitrile, reference compound] has an EC5 [2] of 8e-05 µM.

In the case of `CC(=O)O[C@]1(C(C)=O)CC[C@H]2[C@@H]3C=C(Cl)C4=CC(=O)CC[C@]4(C)[C@H]3CC[C@@]21C` [chlormadinone acetate], the “weight of the prostate gland” value [5] is listed as “increase”.

In the case of `CC1(C)C(=O)N(c2ccc(C#N)c(Cl)c2)C(=S)N1CCS(N)(=O)=O` [Example 28, 2-[3-(3-chloro-4-cyanophenyl)-5,5-dimethyl-4-oxo-2-thioxoimidazolidin-1-yl]ethane-1-sulfonic acid amide], the IC50 [1, 6] is reported as 0.4 µM and the EC5 [2] is reported as greater than 10 µM.

`CC1(C)C(=O)N(c2ccc(C#N)c(Cl)c2)C(=S)N1CCCS(N)(=O)=O` [Example 1, 3-[3-(3-chloro-4-cyanophenyl)-5,5-dimethyl-4-oxo-2-thioxoimidazolidin-1-yl]propane-1-sulfonic acid amide] showed an IC50 [1] of 0.2 µM and an EC5 [2] greater than 10 µM.

`CC1(C)C(=O)N(c2ccc(C#N)c(Cl)c2)C(=S)N1CCCCS(N)(=O)=O` [Example 26, 4-[3-(3-chloro-4-cyanophenyl)-5,5-dimethyl-4-oxo-2-thioxoimidazolidin-1-yl]butane-1-sulfonic acid amide] gave an IC50 [1, 6] of 0.9 µM and an EC5 [2] greater than 10 µM.

For `CC(=O)O[C@]1(C(C)=O)CC[C@H]2[C@@H]3C=C(Cl)C4=CC(=O)[C@@H]5C[C@@H]5[C@]4(C)[C@H]3CC[C@@]21C` [cyproterone acetate], the “weight of the prostate gland” value [5] is listed as “increase”.
